Data taken from ChEMBL document CHEMBL5608234, “Heat Shock Protein 90 Interactome-Mediated Proteolysis Targeting Chimera (HIM-PROTAC) Degrading Glutathione Peroxidase 4 to Trigger Ferroptosis” (J Med Chem, 2024).
Calls of active or inactive are those of the source. The rule behind the calls is not given here.

Tested on: HT-1080
Experiment: HIM-PROTAC activity at GPX4/HSP90/E3 ligase in human HT-1080 cells assessed as downregulation of GPX4 mRNA level at 1 uM incubated for 24 hrs by qRT-PCR analysis
Assay type: cell-based

Question: For `COc1c(C)cnc(Cn2cnc3c(NCCOCCOCCOCCn4cc(COc5ccc(N(C(=O)CCl)C(C(=O)NCCc6ccccc6)c6cccs6)cc5Cl)nn4)nc(N)nc32)c1C` (stereo unspecified), which Activity is on record?
Answer: Active
